In this test the target is MAPK14 (human) (UniProt Q16539). Put plainly: Inhibition of MAPK14 Kinase Activity. As to conditions: for inhibition: concentration not given here.

The results in this text go back to the Kinase Knowledgebase extract (Sharma et al. 2016).

Usually IC50 stands for the concentration at which inhibition is half-maximal. Read a high IC50 as a need for much substance. Broadly, the inhibition is the drop in the measured response relative to a control, in per cent. A high value points to a strong effect.

SMILES strings stand for the structures.

Chain of MAPK14 (human) (Q16539 whole entry, looked up): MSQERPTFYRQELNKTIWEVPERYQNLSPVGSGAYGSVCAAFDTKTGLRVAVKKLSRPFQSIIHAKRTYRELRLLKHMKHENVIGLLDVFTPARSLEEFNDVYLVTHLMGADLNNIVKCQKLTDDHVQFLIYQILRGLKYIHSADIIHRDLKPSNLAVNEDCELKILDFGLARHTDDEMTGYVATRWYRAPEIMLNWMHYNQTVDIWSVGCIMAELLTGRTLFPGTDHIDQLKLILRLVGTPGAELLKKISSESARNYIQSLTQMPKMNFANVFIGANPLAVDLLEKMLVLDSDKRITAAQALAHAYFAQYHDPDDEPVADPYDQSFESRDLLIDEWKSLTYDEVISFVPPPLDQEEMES

`CC(C)(C)c1cc(C(=O)N2CCC(=O)N(CCN)CC2)c(NC(=O)Nc2cccc(Cl)c2Cl)s1` yielded an IC50 of less than 5 µM.
Turning to `CC(C)(C)c1cc(C(=O)N2CCNC(=O)C2(C)CC(N)=O)c(NC(=O)Nc2cccc(Cl)c2Cl)s1` (centres undefined), the IC50 is less than 5 µM.
Turning to `CC(C)(C)c1cc(C(=O)N2CCNC(=O)C2CC(N)=O)c(NC(=O)Nc2cccc(Cl)c2Cl)s1` (centres undefined), the concentration for half-maximal inhibition (IC50) was less than 5 µM.
`CN(C)CCN1CCN(C(=O)c2cc(C(C)(C)C)sc2NC(=O)Nc2cccc(Cl)c2Cl)CCC1=O` returned an inhibition of 76 to 100%.
`CC(C)(C)c1cc(C(=O)N2CCNC(=O)C2(C)CCO)c(NC(=O)Nc2ccc(F)c(Cl)c2Cl)s1` (centres undefined) returned an IC50 of less than 5 µM.
Turning to `CC(C)(C)c1cc(C(=O)N2CCNC(=O)CC2)c(NC(=O)Nc2ccc(Cl)c(Cl)c2Cl)s1`, the half-maximal inhibitory concentration (IC50) is less than 5 µM.
On to `Cc1noc(CN2CCN(C(=O)c3cc(C(C)(C)C)sc3NC(=O)Nc3cccc(Cl)c3Cl)C(C)(CC(N)=O)C2=O)n1` (centres undefined), for which the 50% inhibitory concentration (IC50) is less than 5 µM.
`CN1CCN(C(=O)c2cc(C(C)(C)C)n(C)c2NC(=O)Nc2cccc(Cl)c2Cl)C(C)(C)C1=O`: the half-inhibitory concentration (IC50) was less than 5 µM.
With `CC(C)(C)c1cc(C(=O)N2CCNS(=O)(=O)CC2)c(NC(=O)Nc2ccc(C#N)cc2C(F)(F)F)s1`, the inhibition was in the range of 76 to 100%.
Take `CCC(C)(C)c1cc(NC(=O)Nc2cccc(Cl)c2Cl)c(C(=O)N2CCNC(=O)C2(C)C)[nH]1`: the IC50 was less than 5 µM.
In turn, `COC(=O)CC1CC(=O)NCCN1C(=O)c1cc(C(C)(C)C)sc1NC(=O)Nc1cccc(Cl)c1Cl` (centres undefined) came in with an IC50 of less than 5 µM.
Molecule `COc1ccc(NC(=O)Nc2sc(C(C)(C)C)cc2C(=O)N2CCNC(=O)CC2)cc1Cl` yielded an inhibition of 76 to 100%.
The molecule `CCC1(C)C(=O)N(CC(=O)NCCN(C)C)CCN1C(=O)c1cc(C(C)(C)C)sc1NC(=O)Nc1cccc(Cl)c1Cl` (centres undefined) came in with an IC50 of less than 5 µM.
Turning to `CCC1(C)C(=O)N(CC(=O)NCCN(C)C)CCN1C(=O)c1cc(C(C)(C)C)sc1NC(=O)Nc1ccccc1C(F)(F)F` (centres undefined), the concentration for half-maximal inhibition (IC50) was less than 5 µM.
The same measure, in the same setting: with `COC(=O)CN1CCN(C(=O)c2cc(C(C)(C)C)sc2NC(=O)Nc2cccc(Cl)c2Cl)CC1` the figure was less than 5 µM.
Take `COc1ccc(NC(=O)Nc2sc(C(C)(C)C)cc2C(=O)N2CCNC(=O)CC2)c(Cl)c1Cl`: the concentration for half-maximal inhibition (IC50) was less than 5 µM.
The same measure, in the same setting: the value for `CC(C)(C)c1cc(C(=O)N2CCN(S(C)(=O)=O)CC2)c(NC(=O)Nc2cccc(Cl)c2Cl)s1` was less than 5 µM; that for `CC(C)(C)c1cc(C(=O)N2CCCN(S(C)(=O)=O)CC2)c(NC(=O)Nc2cccc(Cl)c2Cl)s1` was less than 5 µM; that for `CN(C)CCN1CCN(C(=O)c2cc(C(C)(C)C)sc2NC(=O)Nc2cccc(Cl)c2Cl)C(C)(C)C1=O` was less than 5 µM.
Molecule `CN(C)CCN1CCN(C(=O)c2cc(C(C)(C)C)sc2NC(=O)Nc2cccnc2Cl)C(C)(C)C1=O` had a half-inhibitory concentration (IC50) of less than 5 µM.
In turn, `CN(C)CCN(C)C(=O)CN1CCN(C(=O)c2cc(C(C)(C)C)sc2NC(=O)Nc2cccc(Cl)c2Cl)C(C)(C)C1=O` had a concentration for half-maximal inhibition (IC50) of less than 5 µM.
In the case of `COc1cccc(NC(=O)Nc2sc(C(C)(C)C)cc2C(=O)N2CCN(CCN(C)C)C(=O)C2(C)C)c1Cl`, the IC50 was less than 5 µM.
Still for that read-out and setting: with `CC(C)(C)c1cc(C(=O)N2CCNC(=O)C23CCC3)c(NC(=O)Nc2ccc(F)c(Cl)c2Cl)s1` the figure was less than 5 µM; with `Cc1ccccc1NC(=O)Nc1sc(C(C)(C)C)cc1C(=O)N1CCN(CCN(C)C)C(=O)C1(C)C`, less than 5 µM; with `CC(C)(C)c1cc(C(=O)N2CCNC(=O)C2(C)CCO)c(NC(=O)Nc2cccc(Cl)c2Cl)[nH]1` (centres undefined), less than 5 µM.
The molecule `CCOC(=O)C(C)(CC)NC(=O)c1cc(C(C)(C)C)sc1NC(=O)Nc1cccc(Cl)c1Cl` (centres undefined) yielded a 50% inhibitory concentration (IC50) of less than 5 µM.
In turn, `CN(C)CCNC(=O)CN1CCN(C(=O)c2cc(C(C)(C)C)[nH]c2NC(=O)Nc2cccc(Cl)c2Cl)C(C)(C)C1=O` registered an IC50 of less than 5 µM.
Molecule `CC(C)(C)c1cc(C(=O)N2CCNC(=O)CC2)c(NC(=O)Nc2cc(F)cc(F)c2)s1` gave an IC50 of less than 5 µM.
In turn, `O=C1CCN(C(=O)c2cc(Cl)c(C(F)(F)F)cc2NC(=O)Nc2cccc(Cl)c2Cl)CCN1` registered a concentration for half-maximal inhibition (IC50) of less than 5 µM.
